Here are results for two compounds from USRE37950E1, “Biogradable in-situ forming implants and methods of producing the same” (priority 1990, dated 2002).

Data set [1] in a line: Release of drug from polymer/NMP formulation injected into dialysis tube, placed in pH 7 Sorenson's buffer receiving fluid at 37° C., UV at 237 nm. The format is physicochemical. Particulars: for cumulative fraction of drug released: Example 1: 2% by weight SaCl dispersion in DL-PLA oligomer/NMP 68:32.
Data set [2] in a line: Concentration of SaCl in crevicular fluid from periodontal pocket of a greyhound dog (Periostrips, Periotron, liquid chromatograph). As to conditions: other: inserted into the periodontal pocket.

For the compound `C[n+]1cc2c3c(ccc2c2ccc4cc5c(cc4c21)OCO5)OCO3` [SaCl, Sanguinarine chloride], the “cumulative fraction of drug released” value is recorded as approximately 72% in data set [1] (after 2 days); approximately 85% in data set [1] (after 5 days); approximately 90% in data set [1] (after 9 days); approximately 97% in data set [1] (after 14 days); “Approximately 60%” in data set [1] (first day). Also, the drug released was approximately 40% in data set [1] (Example 3: 1.5% by weight SaCl dispersion in 40% by weight poly(DL-lactide) (MW 2,000) in NMP, after 2 days); approximately 45% in data set [1] (Example 3: 1.5% by weight SaCl dispersion in 40% by weight poly(DL-lactide) (MW 2,000) in NMP, after 5 days); approximately 50% in data set [1] (Example 3: 1.5% by weight SaCl dispersion in 40% by weight poly(DL-lactide) (MW 2,000) in NMP, after 15 days); “approximately 32%” in data set [1] (Example 3: 1.5% by weight SaCl dispersion in 40% by weight poly(DL-lactide) (MW 2,000) in NMP, after the first day); “approximately 7%” in data set [1] (Example 6: 2% by weight SaCl dispersion in 70% by weight 50:50 DL-PLG (MW 1500) in NMP, after 2 days); approximately 10% in data set [1] (Example 6: 2% by weight SaCl dispersion in 70% by weight 50:50 DL-PLG (MW 1500) in NMP, after 5 days). The drug released in data set [1] (Example 6: 2% by weight SaCl dispersion in 70% by weight 50:50 DL-PLG (MW 1500) in NMP, after 7 days) is given as approximately 12%; in data set [1] (Example 6: 2% by weight SaCl dispersion in 70% by weight 50:50 DL-PLG (MW 1500) in NMP, after 14 days), approximately 16%. The compound also had a concentration at 3 days in data set [2] of 63.2 µg/mL. Besides, the concentration at 7 days in data set [2] stood at 80.2 µg/mL. For the same compound, the concentration at 10 days in data set [2] was 67.8 µg/mL. Further, the concentration at 14 days in data set [2] stood at 70.5 µg/mL.

Regarding `CCOC1c2c(ccc3c2OCO3)-c2ccc3cc4c(cc3c2N1C)OCO4` (stereo not shown) [SaEt, Ethoxydihydrosanguinarine], the drug released is given as approximately 52% in data set [1] (Example 2: SaEt dissolved in DL-PLA oligomer/NMP solution of Example 1, after 2 days); approximately 60% in data set [1] (Example 2: SaEt dissolved in DL-PLA oligomer/NMP solution of Example 1, after 5 days); approximately 70% in data set [1] (Example 2: SaEt dissolved in DL-PLA oligomer/NMP solution of Example 1, after 9 days); approximately 80% in data set [1] (Example 2: SaEt dissolved in DL-PLA oligomer/NMP solution of Example 1, after 14 days); “approximately 45%” in data set [1] (Example 2: SaEt dissolved in DL-PLA oligomer/NMP solution of Example 1, after the first day); approximately 14% in data set [1] (Example 4: 1.5% by weight SaEt solution in 40% by weight DL-PLA (MW 2,000) in NMP, after 2 days). Further, the drug released is approximately 20% in data set [1] (Example 4: 1.5% by weight SaEt solution in 40% by weight DL-PLA (MW 2,000) in NMP, after 5 days); approximately 23% in data set [1] (Example 4: 1.5% by weight SaEt solution in 40% by weight DL-PLA (MW 2,000) in NMP, after 9 days); approximately 28% in data set [1] (Example 4: 1.5% by weight SaEt solution in 40% by weight DL-PLA (MW 2,000) in NMP, after 14 days); “approximately 8%” in data set [1] (Example 4: 1.5% by weight SaEt solution in 40% by weight DL-PLA (MW 2,000) in NMP, after the first day). Also, in data set [1] (Example 7: 2% by weight SaEt solution in 70% by weight 50:50 DL-PLG in NMP), the release rate result is listed as “identical to that for SaCl described in Example 6”.
